Paper PMC8949103 (Viruses, 2022)

How the values were obtained:
[1] = biological target: Porcine deltacoronavirus (PDCoV) main protease (M^pro) (Porcine deltacoronavirus (PDCoV)); experiment: crystal structure
[2] = biological target: T1, PDCoV M^pro (Porcine deltacoronavirus, UniProt A0A140ESF0); experiment: fluorogenic peptide cleavage assay, progress-curve inactivation; format: biochemical; settings: covalent; irreversible, Cys-144, active site; substrate MCA-AVLQSGFR-Lys(Dnp)-Lys-NH2 50 µM; enzyme 2 µM; pH 7.3, 30 °C
[3] = biological target: T1, PDCoV M^pro; experiment: as above; format: biochemical; settings: covalent; Michael acceptor N3 derivative; assay similar to N3

Molecule | KI (inactivation) [3] [µM] | other results
Porcine deltacoronavirus (PDCoV) main protease (M^pro) (enzyme) |  | stoichiometry N [1]: 2
Cc1cc(C(=O)N[C@@H](C)C(=O)N[C@H](C(=O)N[C@@H](CC(C)C)C(=O)N[C@H](/C=C/C(=O)OCc2ccccc2)C[C@@H]2CCNC2=O)C(C)C)no1 [N3] |  | KI (inactivation) [2]: 12 ± 0.13 µM
Cc1cc(C(=O)N[C@@H](C)C(=O)N[C@H](C(=O)N[C@@H](CC(C)C)C(=O)N[C@H](/C=C/C(=O)OC(C)C)C[C@@H]2CCNC2=O)C(C)C)no1 [M14] | 7.56 ± 0.26 | 
COc1ccc(COC(=O)/C=C/[C@H](C[C@@H]2CCNC2=O)NC(=O)[C@H](CC(C)C)NC(=O)[C@@H](NC(=O)[C@H](C)NC(=O)c2cc(C)on2)C(C)C)cc1 [M25] | 8.8 ± 0.15 | 
